Legend:
[1] = test system: vascular signature, Th1 chemokine, CD8 T-effector and NK cell genes in mRCC tumor biopsies; assay: Phase Ib tumor biopsy gene expression analysis (Fluidigm PCR panel, NanoString panel); type: in vivo, human
Procedure: RNA isolation was performed as described by Schleifman et al. (PLoS One 8:e74231, 2014). Briefly, tumor FFPE sections were macro dissected to enrich for neoplastic tissue, and tissue was lysed using tumor lysis buffer and Proteinase K to allow for complete digestion and release of nucleic acids. RNA was isolated using the High Pure FFPE RNA Micro Kit (Roche Applied Sciences, Indianapolis, Ind.) according to the manufacturer's protocol. DNA was isolated using the QIAAMP® DNA FFPE Tissue Kit (Qiagen, Hilden, Germany) according to the manufacturer's protocol. RNA and DNA were stored at 280 uC until the analyses were performed.
Gene-expression analysis was performed using the BioMark HD™ real-time PCR Platform (Fluidigm) as described by Schleifman et al. (PLoS One 8:e74231, 2014). All TAQMAN® assays in the expression panel used FAM™ dye-labeled TAQMAN® minor groove binder (MGB) probes and ordered through Life Technologies either made-to-order or custom-designed, including four reference genes: SP2, GUSB, TMEM55B and VPS33B. A geometric median of the Ct values for the four reference genes (SP2, GUSB, TMEM55B and VPS33B) was calculated for each sample, and expression levels were determined using the delta Ct (ΔCt) method as follows: Ct (target Gene)2GeoMedian Ct (reference genes). Median mRNA expression levels (as measured by immunochip (iChip)) across patients on study were used as cutoffs to derive high- versus low-expression categorization. P values were determined by t test.
NanoString gene expression data were processed using the R/Bioconductor package “NanoStringQCPro.” Raw counts were adjusted by positive control counts before probe- and lane-specific background was calculated based on both negative controls and blank measurements. After background correction, counts were log2 transformed and normalized by housekeeping gene expression (TMEM55B, VPS33B, TBP, and TUBB).
In addition to safety, tolerability, and clinical activity, one key objective of the phase Ib study described above was to evaluate the mechanism of combination activity. The trial design included a run-in period with bevacizumab to specifically interrogate the effects of bevacizumab on the local tumor immune microenvironment, followed by combination therapy with immune checkpoint blockade using atezolizumab. Tumor biopsies and blood were collected prior to treatment, 15-18 days following bevacizumab, and 4-6 weeks after the atezolizumab and bevacizumab combination treatment had been initiated.
To identify tumor markers associated with bevacizumab monotherapy or combination therapy, gene expression analysis was performed using both a 90 gene PCR-based Fluidigm panel and an 800 gene custom NanoString panel. […]

[2] = test system: immune and vasculature markers in mRCC tumor sections; assay: Phase Ib tumor immunohistochemistry (CD34/αSMA, CD8, Ki67/CD8, MHC-I, PD-L1); type: in vivo, human
Procedure: Formalin-fixed, paraffin-embedded (FFPE) tissue sections of 4 μm thickness were stained for PD-L1 with an anti-human PD-L1 rabbit monoclonal antibody (clone SP142; Ventana, Tucson, Ariz.) on an automated staining platform (BenchMark; Ventana) using a concentration of […], with signal visualization by diaminobenzidine; sections were counter-stained with haematoxylin. PD-L1 expression was evaluated on tumor cells and tumor-infiltrating immune cells. […] For tumor-infiltrating immune cells, the percentage of PD-L1-positive tumor-infiltrating immune cells occupying the tumor was determined. […] Specimens were scored as IHC 0, 1, 2, or 3 if <1%, ≥1% but <5%, ≥5% but <10%, or ≥10% of cells per area were PD-L1 positive, respectively. […]
All MHC-I IHC steps were carried out on the Ventana Discovery XT automated platform (Ventana Medical Systems; Tucson, Ariz.). […] Bound primary antibody was detected by the OMNIMAP™ anti-rabbit HRP detection kit, followed by DAB (Ventana Medical Systems; Tucson, Ariz.). […] MHC-I staining in tumor cells was scored using an H-score system. […] Relative to the overall tumor area, the percentage of cells at different staining intensities was determined by visual assessment. […] Cases were scored by two independent pathologists. […]

In the case of “bevacizumab: recombinant humanized anti-VEGF monoclonal antibody, also known as rhuMAb VEGF or AVASTIN®”, the “expression of genes associated with the neo-vasculature (VEGF downstream signaling)” value ([1]; both on-treatment time points vs pre-treatment, all patients) is reported as “significantly decreased”, the “VEGF transcript expression in tumors” value ([1]; normalized to housekeeping gene expression, FIG. 11) is reported as “upregulation” and the “consistent changes in FasL gene expression” value ([1]; on-treatment tumor) is reported as “not observed”. The “patients showing a significant increase in gene signatures related to Th1 signaling” value ([1]; six patients with paired biopsies) was “four of the six”, the “effect on vessels, dual staining of CD34 with αSMA” value ([2]; immature or unstable vessels (CD34+/αSMA−)) was “primarily affected” and the MHC-I staining ([2]; on-treatment tumor vs pre-treatment) was “increase”.
